Experimental data from patent US20100093678A1, “Compositions and methods of the treatment of obesity and osteoporosis” (THE UNIVERSITY OF GEORGIA RESEARCH FOUNDATION, INC, priority 2008, published 2010).
Values joined by “and” are separate entries in the source; they are usually repeats but may differ in a detail not shown here. Equal entries are not always repeated.

What was measured:
[1] = test system: human mesenchymal stem cells (hMSC); test: Osteogenic differentiation of hMSC (ALP activity, calcium deposition, Alizarin red S); type: cell-based; conditions: for alp activity: FIG. 8D, osteogenic conditions; for osteogenesis: hMSC cultured under osteogenic conditions; for increased calcium deposition: pretreatment, day 17, XN 5 μM, cGS varying doses
Method: Alkaline phosphatase activity (ALP/protein) was measured on day 8. Means that are not denoted with a common letter are different (p<0.001).
(§1) In these further examples, post confluent hMSC were treated with varying doses of cGS or XN in adipogenic induction medium, and lipid deposition and cell viability were measured. Alternatively, pre-confluent hMSC were pre-treated with varying doses of cGS or XN for 3 days prior to addition of osteogenic induction medium. Alkaline phosphatase (ALP) activity was determined 3 days post-induction and indices of mineralization (calcium deposition and Alizarin red S stain) were determined 14-28 days post-induction. […] Inhibition was dose-dependent with ˜50% inhibition observed with 6.5 μM cGS and 0.75 μM XN, respectively. Pretreatment with cGS stimulated osteogenic differentiation in hMSC cultures as indicated by increased ALP activity at day 3 (˜10%; P<0.05) and calcium deposition at day 17 (˜35-60%; P<0.05). Pretreatment with 5 μM XN increased calcium deposition (33%; P<0.05) at day 17.

[2] = test system: maturing 3T3-L1 preadipocytes; test: Apoptosis assay (ApoStrand ssDNA ELISA) in maturing preadipocytes; type: cell-based, mouse; conditions: 0.5 nM 1,25(OH)2D3, 3.12 μM GS, alone or combined
Method: (§2) 3T3-L1 mouse embryo fibroblasts were obtained from American Type Culture Collection (Manassas, Va.) and were cultured as described elsewhere. Briefly, cells were cultured in DMEM containing 10% bovine calf serum until confluent. Two days after confluence, the cells were stimulated to differentiate with DMEM containing 10% fetal bovine serum (FBS), 167 nM insulin, […], and 1 μM dexamethasone for 2 days. On day 2, differentiation medium was replaced with 10% FBS/DMEM containing 167 nM insulin and incubated for 2 days, followed by culturing with 10% FBS/DMEM for an additional 4 days, at which time >90% of cells were mature adipocytes with accumulated fat droplets. All media contained 1% penicillin streptomycin (10,000 U/ml) and 1% (v/v) 100 mM pyruvate. Cells were maintained at 37° C. in a humidified 5% CO2 atmosphere.
Apoptosis assay. For measuring the extent of apoptosis, the ApoStrand ELISA Apoptosis Detection Kit (Biomol, Plymouth Meeting, Pa.) was used. Cells were grown in 96-well plates and incubated with either vehicle or test reagents for the indicated time periods. Cells were then fixed and assayed as per the manufacturer's instructions. The assay selectively detects single-stranded DNA, which occurs in apoptotic cells but not in necrotic cells or cells with DNA breaks in the absence of apoptosis.

[3] = test system: FXR; test: Western blot, FXR expression in maturing 3T3-L1 preadipocytes; type: cell-based, mouse; conditions: for increase in FXR levels: 3.12 μM GS
Method: (§3) The protein concentration was determined by BCA assay with bovine serum albumin as the standard. Western blot analysis was performed using the commercial NUPAGE system (Novex/Invitrogen), in which a lithium dodecyl sulfate sample buffer (Tris/glycerol buffer, pH 8.5) was mixed with fresh dithiothreitol and added to samples.
(§4) Measurement of signal intensity on PVDF membranes after Western blotting with various antibodies was performed using a Fluor Chem densitomer with the Alpha-EaseFC image processing and analysis software (Alpha Innotech Corp.). For statistical analysis, all data were expressed as integrated density values (IDV), which were calculated as the density values of the specific protein bands/b-actin density values and expressed as percentage of the control. All figures showing quantitative analysis include data from at least three independent experiments.

[4] = test system: C/EBPα; test: Western blot, C/EBPα expression in maturing 3T3-L1 preadipocytes; type: cell-based, mouse; conditions: 0.5 nM 1,25(OH)2D3, 3.12 μM GS, alone or combined; days 0-6; vs control
Method: as §3, §4

[5] = test system: aP2; test: Western blot, aP2 expression in maturing 3T3-L1 preadipocytes; type: cell-based, mouse; conditions: 0.5 nM 1,25(OH)2D3, 3.12 μM GS, alone or combined; days 0-6; vs control
Method: as §3, §4

[6] = test system: maturing 3T3-L1 preadipocytes; test: Quantification of lipid content (AdipoRed/Nile Red) in maturing preadipocytes; type: cell-based, mouse; conditions: 0.5 nM 1,25(OH)2D3 (D0.5), 3.12 μM GS (GS3.12), alone or combined; treated during adipogenic phase, measured day 6
Method: as §2
Lipid content was quantified using commercially available AdipoRed™ Assay Reagent. In brief, maturing adipocytes grown in 96-well plates were incubated with vehicle or test compounds during the adipogenic phase and on day 6, culture supernatant was removed and lipid content was quantified by performing AdipoRed™ assay as per the manufacturer's instructions. Treated cells were also stained with Oil Red O and hematoxylin as described by Suryawan and Hu to visualize the lipid content. […]

[7] = test system: PPARγ; test: Western blot, PPARγ expression in maturing 3T3-L1 preadipocytes; type: cell-based, mouse; conditions: 0.5 nM 1,25(OH)2D3, 3.12 μM GS, alone or combined; days 0-6; vs control
Method: as §3, §4

[8] = test system: VDR; test: Western blot, VDR expression in maturing 3T3-L1 preadipocytes; type: cell-based, mouse; conditions: any time point (day 1, 4, 6); 3.12 μM GS
Method: as §3, §4

[9] = test system: human mesenchymal stem cells (hMSC); test: Cell viability in hMSC adipogenic cultures; type: cell-based; conditions: adipogenic conditions; varying doses of cGS; XN 1.5-12 μM
Method: (§5) In these further examples, post confluent hMSC were treated with varying doses of cGS or XN in adipogenic induction medium, and lipid deposition and cell viability were measured. Alternatively, pre-confluent hMSC were pre-treated with varying doses of cGS or XN for 3 days prior to addition of osteogenic induction medium. Alkaline phosphatase (ALP) activity was determined 3 days post-induction and indices of mineralization (calcium deposition and Alizarin red S stain) were determined 14-28 days post-induction. […] P<0.05). Pretreatment with 5 μM XN increased calcium deposition (33%; P<0.05) at day 17.

[10] = test system: human mesenchymal stem cells (hMSC); test: Lipid deposition / adipogenesis in hMSC under adipogenic conditions; type: cell-based; conditions: for adipogenesis (lipid accumulation): hMSC cultured under adipogenic conditions
Method: Cells were cultured in adipogenic induction medium and treated with control or the combination of R+Q+G (15 μM each). After 18 days adipogenesis was measured and expressed as % control. […] Means that are not denoted with a common letter are different p<0.05.
as §1

[11] = test system: maturing 3T3-L1 preadipocytes; test: Cell viability assay (CellTiter 96) in maturing preadipocytes; type: cell-based, mouse; conditions: 0.5 nM 1,25(OH)2D3, 3.12 μM GS, alone or combined; 6 days during adipogenesis
Method: as §2
Tests were performed in 96-well plates. Two day postconfluent preadipocytes were treated with differentiation medium containing either vehicle or test compounds for 6 days during adipogenesis. On day 6 the treatment medium was removed and the cell viability assay was performed as per the manufacturer's instructions. The absorbance was measured at 490 nm in a plate reader (μQuant Bio-Tek Instruments, Winooski, Vt.) to determine the formazan concentration, which is proportional to the number of live cells.

[12] = test system: PPARs; conditions: reference [20]; cited from earlier work
[13] = test system: human mesenchymal stem cells (hMSC); test: Cell viability in hMSC osteogenic cultures; type: cell-based; conditions: osteogenic conditions; varying doses of cGS; XN 20 μM
Method: as §5

Molecule: C=C1/C(=C\C=C2/CCC[C@]3(C)[C@@H]([C@H](C)CCCC(C)(C)O)CC[C@@H]23)C[C@@H](O)C[C@@H]1O [1,25(OH)2D3, 1,25-dihydroxy vitamin D3, reference compound]
- alp activity [1]: significantly increased alp activity
- increase in apoptosis [2]: 18.4±2.3%
- effect on FXR levels ([3]; any time point, 0.5 nM 1,25(OH)2D3): no effect
- decrease in expression of C/EBPα [4]: 46.3±3.4% and 46%
- decrease in expression of aP2 [5]: 27.2±4.8%
- decrease in lipid accumulation [6]: 29.3±3.4%
- decrease in expression of PPARγ [7]: 46.2±4.4% and 46%

Molecule: C/C=C1\C(=O)C[C@H]2[C@@H]3CCC4=CC(=O)CC[C@]4(C)[C@H]3CC[C@]12C [GS, cis-Guggulsterone]
- effect on VDR expression [8]: did not significantly alter
- cell number (viability) [9]: dose-dependent increase
- osteogenesis [1]: promoted osteogenesis
- increased ALP activity ([1]; pretreatment 3 days before osteogenic induction, day 3 post-induction): ~10%
- increased calcium deposition [1]: 35-60%
- increase in apoptosis [2]: did not have any significant effect
- inhibition of lipid deposition ([10]; 6.5 μM cGS, 0.75 μM XN, adipogenic conditions): ~50%
- adipogenesis (lipid accumulation) [10]: reduced adipogenesis
- effect on FXR expression ([3]; day 1, 3.12 μM GS alone or with 0.5 nM 1,25(OH)2D3): did not have any significant effect
- increase in FXR levels ([3]; day 4): 30.6±9.3%
- increase in FXR levels ([3]; day 6): 64.8±10%
- decrease in cell viability [11]: did not have any significant effect
- decrease in expression of C/EBPα [4]: did not significantly alter
- interaction with PPARs [12]: did not interact
- decrease in expression of aP2 [5]: did not significantly alter
- cell number (viability) [13]: dose-dependent increase
- decrease in lipid accumulation [6]: 29.7±2.7%
- decrease in expression of PPARγ [7]: did not significantly alter

Molecule: COc1cc(O)c(CC=C(C)C)c(O)c1C(=O)/C=C/c1ccc(O)cc1 [XN, xanthohumol]
- cell number (viability) [9]: increased cell viability dose-dependently
- osteogenesis [1]: promoted osteogenesis
- increased calcium deposition [1]: 33%
- inhibition at 0.75 µM ([10]; Homo sapiens, Mesenchymal stem cells, 6.5 μM cGS, 0.75 μM XN, adipogenic conditions): ~50%
- adipogenesis (lipid accumulation) [10]: reduced adipogenesis
- cell number (viability) [13]: decreased viability

Molecule: O=c1c(-c2ccc(O)cc2)coc2cc(O)cc(O)c12 [genistein, 5,7-Dihydroxy-3-(4-hydroxyphenyl)chromen-4-one]
- alp activity [1]: significantly increased alp activity
- osteogenesis [1]: promoted osteogenesis

Molecule: O=c1c(O)c(-c2ccc(O)c(O)c2)oc2cc(O)cc(O)c12 [quercetin, 2-(3,4-dihydroxyphenyl)-3,5,7-trihydroxy-4H-chromen-4-one]
- osteogenesis [1]: promoted osteogenesis
- adipogenesis (lipid accumulation) [10]: reduced adipogenesis

Molecule: vitamin D [reference compound]
- osteogenesis [1]: promoted osteogenesis
